Our source for the IC50 values is patent US20250163104A1, “MACROCYCLIC IMMUNOMODULATORS” (priority 2021, published 2025).

Where a SMILES comes first, the peptide text is derived from it. Bridges are numbered along the chain shown (N, C = ends). [ ]: non-standard residue; d: D form. The star is where a group is joined. Phe(4-COOH) = N[C@@H](Cc1ccc(C(=O)O)cc1)C(=O)O; Bip = N[C@@H](Cc1ccc(-c2ccccc2)cc1)C(=O)O; Phe(3-F) = N[C@@H](Cc1cccc(F)c1)C(=O)O; Cit = NC(=O)NCCC[C@H](N)C(=O)O; Carboxymethyl = O=C(O)C*; Orn = NCCC[C@H](N)C(=O)O; Dab = NCC[C@H](N)C(=O)O; Dap = NC[C@H](N)C(=O)O

As usually defined, the IC50 is the concentration that gives 50% inhibition.

The target of the assay is T1, human PD-1 / PD-L1-Ig binding on Jurkat cell line over-expressing human PD-1 (Jurkat-PD-1) (Homo sapiens, UniProt Q15116).
T1 construct: expressed in transfected cells; host or cells: Jurkat
T1 sequence (Q15116 25-288): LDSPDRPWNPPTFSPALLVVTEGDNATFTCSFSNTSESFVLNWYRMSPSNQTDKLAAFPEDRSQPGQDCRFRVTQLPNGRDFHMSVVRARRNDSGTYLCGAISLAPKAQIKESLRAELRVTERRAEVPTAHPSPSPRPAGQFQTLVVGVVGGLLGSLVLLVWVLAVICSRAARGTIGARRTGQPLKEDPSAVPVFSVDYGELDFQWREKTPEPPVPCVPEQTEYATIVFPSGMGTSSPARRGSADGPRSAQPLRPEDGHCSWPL
Briefly: Jurkat-PD-1 Cell Binding High-Content Screening Assay (CBA). The class given is cell-based. The settings on record: Jurkat-PD-1 cells, PE-labeled PD-L1-Ig 20 nM final; read-out: Jurkat HPD1_PDL1 IC50. The method, boiled down: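 PE-PD-L1-Ig 20 nM final; cells in DMEM/10% FCS; cpd pre-incubation 2 h, 37° C; ligand 1 h; PFA fix + Hoechst 33342; high-content imaging read-out.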
As for `CC[C@H](C)[C@@H]1NC(=O)[C@H](Cc2ccc(-c3ccccc3)cc2)NC(=O)[C@H](C(C)C)NC(=O)[C@H](Cc2c[nH]c3ccccc23)NC(=O)[C@H](CC(=O)O)NC(=O)[C@H](Cc2ccc(C(=O)O)cc2)NC(=O)[C@H](Cc2ccc(OCC(=O)O)cc2)NC(=O)CSC[C@@H](C(=O)N[C@@H](C)C(N)=O)NC(=O)[C@H]([C@@H](C)O)NC(=O)[C@H](C(C)C)NC(=O)[C@H](Cc2cccc(F)c2)NC(=O)[C@H](CCN)NC(=O)[C@@H](CC(C)C)NC(=O)[C@H](CCCN)NC1=O` [Compound 1670], the IC50 came out at 13.9 nM.
The figure for `CC[C@H](C)[C@@H]1NC(=O)[C@H](Cc2ccc(-c3ccccc3)cc2)NC(=O)[C@H](C(C)C)NC(=O)[C@H](Cc2c[nH]c3ccccc23)NC(=O)[C@H](CC(=O)O)NC(=O)[C@H](Cc2ccc(OCC(=O)O)cc2)NC(=O)[C@H](Cc2ccc(OCC(=O)O)cc2)NC(=O)CSC[C@@H](C(=O)N[C@@H](C)C(N)=O)NC(=O)[C@H]([C@@H](C)O)NC(=O)[C@H](C(C)C)NC(=O)[C@H](Cc2cccc(F)c2)NC(=O)[C@H](CCN)NC(=O)[C@@H](CC(C)C)NC(=O)[C@H](CCCN)NC1=O` [Compound 1671] ({CH2CO}-Y(Carboxymethyl)Y(Carboxymethyl)DWV[Bip]I[Orn][dL][Dab][Phe(3-F)]VTCA-NH2; thioether N-14) is 22.9 nM; for `CC(C)C[C@H]1NC(=O)[C@H](CCCN)NC(=O)[C@H](C(C)C)NC(=O)[C@H](Cc2ccc(-c3ccccc3)cc2)NC(=O)[C@H](C(C)C)NC(=O)[C@H](Cc2c[nH]c3ccccc23)NC(=O)[C@H](CC(=O)O)NC(=O)[C@H](Cc2ccc(OCC(=O)O)cc2)NC(=O)[C@H](CN)NC(=O)CSC[C@@H](C(=O)N[C@@H](C)C(N)=O)NC(=O)[C@H]([C@@H](C)O)NC(=O)[C@H](C(C)C)NC(=O)[C@H](Cc2cccc(F)c2)NC(=O)[C@H](CCN)NC1=O` [Compound 1672] ({CH2CO}-[Dap]Y(Carboxymethyl)DWV[Bip]V[Orn][dL][Dab][Phe(3-F)]VTCA-NH2; thioether N-14) it is 11.2 nM; for `CC(C)C[C@H]1NC(=O)[C@H](CCCN)NC(=O)[C@H](C(C)C)NC(=O)[C@H](Cc2ccc(-c3ccccc3)cc2)NC(=O)[C@H](C(C)C)NC(=O)[C@H](Cc2c[nH]c3ccccc23)NC(=O)[C@H](CC(=O)O)NC(=O)[C@H](Cc2ccc(C(=O)O)cc2)NC(=O)[C@H](Cc2ccc(OCC(=O)O)cc2)NC(=O)CSC[C@@H](C(=O)N[C@@H](C)C(N)=O)NC(=O)[C@H]([C@@H](C)O)NC(=O)[C@H](C(C)C)NC(=O)[C@H](Cc2cccc(F)c2)NC(=O)[C@H](CCN)NC1=O` [Compound 1673] it is 13.6 nM.
In the case of `CC(C)C[C@H]1NC(=O)[C@H](CCCN)NC(=O)[C@H](C(C)C)NC(=O)[C@H](Cc2ccc(-c3ccccc3)cc2)NC(=O)[C@H](C(C)C)NC(=O)[C@H](Cc2c[nH]c3ccccc23)NC(=O)[C@H](CC(=O)O)NC(=O)[C@H](Cc2ccc(OCC(=O)O)cc2)NC(=O)[C@H](Cc2ccc(OCC(=O)O)cc2)NC(=O)CSC[C@@H](C(=O)N[C@@H](C)C(N)=O)NC(=O)[C@H]([C@@H](C)O)NC(=O)[C@H](C(C)C)NC(=O)[C@H](Cc2cccc(F)c2)NC(=O)[C@H](CCN)NC1=O` [Compound 1674] ({CH2CO}-Y(Carboxymethyl)Y(Carboxymethyl)DWV[Bip]V[Orn][dL][Dab][Phe(3-F)]VTCA-NH2; thioether N-14), the IC50 turned out to be 16.9 nM.
`CC(C)C[C@H]1NC(=O)[C@H](CCCN)NC(=O)[C@H](CCCNC(N)=O)NC(=O)[C@H](Cc2ccc(-c3ccccc3)cc2)NC(=O)[C@H](C(C)C)NC(=O)[C@H](Cc2c[nH]c3ccccc23)NC(=O)[C@H](CC(=O)O)NC(=O)[C@H](Cc2ccc(C(=O)O)cc2)NC(=O)[C@H](Cc2ccc(OCC(=O)O)cc2)NC(=O)CSC[C@@H](C(=O)N[C@@H](C)C(N)=O)NC(=O)[C@H]([C@@H](C)O)NC(=O)[C@H](C(C)C)NC(=O)[C@H](Cc2cccc(F)c2)NC(=O)[C@H](CCN)NC1=O` [Compound 1675] ({CH2CO}-Y(Carboxymethyl)[Phe(4-COOH)]DWV[Bip][Cit][Orn][dL][Dab][Phe(3-F)]VTCA-NH2; thioether N-14): the IC50 was 20.9 nM.
As for `CC(C)C[C@H]1NC(=O)[C@H](CCCN)NC(=O)[C@H](CCCNC(N)=O)NC(=O)[C@H](Cc2ccc(-c3ccccc3)cc2)NC(=O)[C@H](C(C)C)NC(=O)[C@H](Cc2c[nH]c3ccccc23)NC(=O)[C@H](CC(=O)O)NC(=O)[C@H](Cc2ccc(OCC(=O)O)cc2)NC(=O)[C@H](Cc2ccc(OCC(=O)O)cc2)NC(=O)CSC[C@@H](C(=O)N[C@@H](C)C(N)=O)NC(=O)[C@H]([C@@H](C)O)NC(=O)[C@H](C(C)C)NC(=O)[C@H](Cc2cccc(F)c2)NC(=O)[C@H](CCN)NC1=O` [Compound 1676] ({CH2CO}-Y(Carboxymethyl)Y(Carboxymethyl)DWV[Bip][Cit][Orn][dL][Dab][Phe(3-F)]VTCA-NH2; thioether N-14), the IC50 is 22.2 nM.
In the case of `CC(C)C[C@H]1NC(=O)[C@H](CCCN)NC(=O)[C@H](CCC(=O)O)NC(=O)[C@H](Cc2ccc(-c3ccccc3)cc2)NC(=O)[C@H](C(C)C)NC(=O)[C@H](Cc2c[nH]c3ccccc23)NC(=O)[C@H](CC(=O)O)NC(=O)[C@H](Cc2ccc(OCC(=O)O)cc2)NC(=O)[C@H](CN)NC(=O)CSC[C@@H](C(=O)N[C@@H](C)C(N)=O)NC(=O)[C@H]([C@@H](C)O)NC(=O)[C@H](C(C)C)NC(=O)[C@H](Cc2cccc(F)c2)NC(=O)[C@H](CCN)NC1=O` [Compound 1677] ({CH2CO}-[Dap]Y(Carboxymethyl)DWV[Bip]E[Orn][dL][Dab][Phe(3-F)]VTCA-NH2; thioether N-14) it was 21.1 nM.
Consider `CC[C@H](C)[C@@H]1NC(=O)[C@H](Cc2ccc(-c3ccccc3)cc2)NC(=O)[C@H](C(C)C)NC(=O)[C@H](Cc2c[nH]c3ccccc23)NC(=O)[C@H](CC(=O)O)NC(=O)[C@H](Cc2ccc(OCC(=O)O)cc2)NC(=O)[C@H](CN)NC(=O)CSC[C@@H](C(=O)N[C@@H](C)C(N)=O)NC(=O)[C@H]([C@@H](C)O)NC(=O)[C@H](C(C)C)NC(=O)[C@H](Cc2ccc(O)cc2)NC(=O)[C@H](CCN)NC(=O)[C@@H](CC(C)C)NC(=O)[C@H](CCCN)NC1=O` [Compound 1678] ({CH2CO}-[Dap]Y(Carboxymethyl)DWV[Bip]I[Orn][dL][Dab]YVTCA-NH2; thioether N-14), for which the concentration for half-maximal inhibition (IC50) was found to be 52 nM.
Consider `CC[C@H](C)[C@@H]1NC(=O)[C@H](Cc2ccc(-c3ccccc3)cc2)NC(=O)[C@H](C(C)C)NC(=O)[C@H](Cc2c[nH]c3ccccc23)NC(=O)[C@H](CC(=O)O)NC(=O)[C@H](Cc2ccc(C(=O)O)cc2)NC(=O)[C@H](Cc2ccc(OCC(=O)O)cc2)NC(=O)CSC[C@@H](C(=O)N[C@@H](C)C(N)=O)NC(=O)[C@H]([C@@H](C)O)NC(=O)[C@H](C(C)C)NC(=O)[C@H](Cc2ccc(O)cc2)NC(=O)[C@H](CCN)NC(=O)[C@@H](CC(C)C)NC(=O)[C@H](CCCN)NC1=O` [Compound 1679] ({CH2CO}-Y(Carboxymethyl)[Phe(4-COOH)]DWV[Bip]I[Orn][dL][Dab]YVTCA-NH2; thioether N-14), for which the IC50 came out at 92.2 nM.
Consider `CC[C@H](C)[C@@H]1NC(=O)[C@H](Cc2ccc(-c3ccccc3)cc2)NC(=O)[C@H](C(C)C)NC(=O)[C@H](Cc2c[nH]c3ccccc23)NC(=O)[C@H](CC(=O)O)NC(=O)[C@H](Cc2ccc(OCC(=O)O)cc2)NC(=O)[C@H](Cc2ccc(OCC(=O)O)cc2)NC(=O)CSC[C@@H](C(=O)N[C@@H](C)C(N)=O)NC(=O)[C@H]([C@@H](C)O)NC(=O)[C@H](C(C)C)NC(=O)[C@H](Cc2ccc(O)cc2)NC(=O)[C@H](CCN)NC(=O)[C@@H](CC(C)C)NC(=O)[C@H](CCCN)NC1=O` [Compound 1680] ({CH2CO}-Y(Carboxymethyl)Y(Carboxymethyl)DWV[Bip]I[Orn][dL][Dab]YVTCA-NH2; thioether N-14), for which the IC50 worked out at 71.7 nM.
Consider `CC(C)C[C@H]1NC(=O)[C@H](CCCN)NC(=O)[C@H](C(C)C)NC(=O)[C@H](Cc2ccc(-c3ccccc3)cc2)NC(=O)[C@H](C(C)C)NC(=O)[C@H](Cc2c[nH]c3ccccc23)NC(=O)[C@H](CC(=O)O)NC(=O)[C@H](Cc2ccc(OCC(=O)O)cc2)NC(=O)[C@H](CN)NC(=O)CSC[C@@H](C(=O)N[C@@H](C)C(N)=O)NC(=O)[C@H]([C@@H](C)O)NC(=O)[C@H](C(C)C)NC(=O)[C@H](Cc2ccc(O)cc2)NC(=O)[C@H](CCN)NC1=O` [Compound 1681] ({CH2CO}-[Dap]Y(Carboxymethyl)DWV[Bip]V[Orn][dL][Dab]YVTCA-NH2; thioether N-14), for which the IC50 amounted to 48.9 nM.
`CC(C)C[C@H]1NC(=O)[C@H](CCCN)NC(=O)[C@H](C(C)C)NC(=O)[C@H](Cc2ccc(-c3ccccc3)cc2)NC(=O)[C@H](C(C)C)NC(=O)[C@H](Cc2c[nH]c3ccccc23)NC(=O)[C@H](CC(=O)O)NC(=O)[C@H](Cc2ccc(C(=O)O)cc2)NC(=O)[C@H](Cc2ccc(OCC(=O)O)cc2)NC(=O)CSC[C@@H](C(=O)N[C@@H](C)C(N)=O)NC(=O)[C@H]([C@@H](C)O)NC(=O)[C@H](C(C)C)NC(=O)[C@H](Cc2ccc(O)cc2)NC(=O)[C@H](CCN)NC1=O` [Compound 1682] ({CH2CO}-Y(Carboxymethyl)[Phe(4-COOH)]DWV[Bip]V[Orn][dL][Dab]YVTCA-NH2; thioether N-14): the IC50 was 66 nM.
Turning to `CC(C)C[C@H]1NC(=O)[C@H](CCCN)NC(=O)[C@H](C(C)C)NC(=O)[C@H](Cc2ccc(-c3ccccc3)cc2)NC(=O)[C@H](C(C)C)NC(=O)[C@H](Cc2c[nH]c3ccccc23)NC(=O)[C@H](CC(=O)O)NC(=O)[C@H](Cc2ccc(OCC(=O)O)cc2)NC(=O)[C@H](Cc2ccc(OCC(=O)O)cc2)NC(=O)CSC[C@@H](C(=O)N[C@@H](C)C(N)=O)NC(=O)[C@H]([C@@H](C)O)NC(=O)[C@H](C(C)C)NC(=O)[C@H](Cc2ccc(O)cc2)NC(=O)[C@H](CCN)NC1=O` [Compound 1683] ({CH2CO}-Y(Carboxymethyl)Y(Carboxymethyl)DWV[Bip]V[Orn][dL][Dab]YVTCA-NH2; thioether N-14), the IC50 worked out at 104 nM.
